The results in this text go back to BindingDB's records for doi:10.1111/cbdd.12887 (Josip Juraj Strossmayer University of Osijek, 2017).

The assay deals with T1, Dipeptidyl peptidase 3 (Homo sapiens, UniProt Q9NY33).
T1 sequence (Q9NY33 whole entry): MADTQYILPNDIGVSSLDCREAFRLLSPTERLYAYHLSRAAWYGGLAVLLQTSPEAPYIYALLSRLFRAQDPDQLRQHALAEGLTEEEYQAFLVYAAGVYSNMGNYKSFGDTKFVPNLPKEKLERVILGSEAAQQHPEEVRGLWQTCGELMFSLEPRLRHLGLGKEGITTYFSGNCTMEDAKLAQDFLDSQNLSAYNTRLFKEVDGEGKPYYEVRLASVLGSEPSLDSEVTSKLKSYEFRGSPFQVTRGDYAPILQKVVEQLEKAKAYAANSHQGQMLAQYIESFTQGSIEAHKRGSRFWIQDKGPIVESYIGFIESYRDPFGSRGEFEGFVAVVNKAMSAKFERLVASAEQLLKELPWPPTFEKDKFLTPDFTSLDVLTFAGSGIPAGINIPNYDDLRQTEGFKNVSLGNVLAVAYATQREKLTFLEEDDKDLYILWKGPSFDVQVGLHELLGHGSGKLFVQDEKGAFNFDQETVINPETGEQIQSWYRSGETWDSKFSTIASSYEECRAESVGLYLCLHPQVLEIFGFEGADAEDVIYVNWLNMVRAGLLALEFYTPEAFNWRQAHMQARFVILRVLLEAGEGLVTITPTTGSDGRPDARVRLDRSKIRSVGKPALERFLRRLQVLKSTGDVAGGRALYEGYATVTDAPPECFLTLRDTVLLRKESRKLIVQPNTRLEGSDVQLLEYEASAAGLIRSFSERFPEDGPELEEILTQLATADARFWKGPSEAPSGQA
Description: DPP III Enzyme Activity Assay. The conditions noted are these: pH 7.4; 37 °C. As to the method: The inhibitory activity of flavonoids toward human DPP III was assayed in a 50 mM Tris-HCl buffer, pH 7.4. In brief, recombinant human DPP III (0.29 nM) was preincubated with increasing concentrations of flavonoid first for 1 min at 25°C and then for 3 min at 37°C. The enzymatic reaction was started with Arg-Arg-NA (40 μM) as a substrate, and after the 15 min incubation at 37°C in a water bath, the reaction was stopped and the absorbance was measured using the spectrophotometric method described above[Abramić et al., Biol. Chem. Hoppe-Seyler., 369:29]. The stock solutions of flavonoids were prepared daily in dimethyl sulfoxide (DMSO, Sigma-Aldrich).

Structures are written as SMILES.

With `O=c1c(O)c(-c2ccccc2)oc2ccc(O)cc12` [3,6-dihydroxy-2-phenyl-4H-chromen-4-one], the IC50 (in general, the concentration at which inhibition is half-maximal) came to 56.4 µM.

`O=c1cc(-c2ccc(O)cc2)oc2cc(O)cc(O)c12` [Naringenin, 18] showed an IC50 of 54 µM.

In turn, `O=c1c(O)c(-c2ccc(O)c(O)c2)oc2cc(O)ccc12` [2-(3,4-dihydroxyphenyl)-3,7-dihydroxy-chromen-4-one] returned an IC50 of 24.9 µM.

Compound `O=c1c(O)c(-c2ccc(O)c(O)c2)oc2cc(O)cc(O)c12` [2-(3,4-dihydroxyphenyl)-3,5,7-trihydroxy-chromone;hydrate] showed an IC50 of 74.1 µM.

`O=c1c(O)c(-c2ccc(O)cc2)oc2cc(O)cc(O)c12` came in with an IC50 of 32.9 µM.

In turn, `O=c1c(O)c(-c2ccccc2)oc2cc(O)ccc12` [3,7-dihydroxy-2-phenyl-4H-chromen-4-one] came in with an IC50 of 98 µM.

Consider `O=c1c(O)c(-c2ccccc2)oc2ccccc12` [3-hydroxy-2-phenyl-4H-chromen-4-one], for which inhibition was half-maximal at 188 µM (IC50).

On to `O=c1c(O)c(-c2ccccc2)oc2cc(O)cc(O)c12` [norizalpinin], for which it took 23.4 µM to reach half-maximal inhibition (IC50).

Compound `O=c1c(-c2ccc(O)cc2)coc2cc(O)cc(O)c12` [Prunetol] yielded an IC50 of 36.6 µM.

As to `O=c1c(O)c(-c2ccc(O)cc2O)oc2cc(O)cc(O)c12` [2-(2,4-dihydroxyphenyl)-3,5,7-trihydroxychromen-4-one], it took 85 µM to reach half-maximal inhibition (IC50).

Consider `O=c1cc(-c2ccc(O)c(O)c2)oc2cc(O)cc(O)c12` [2-(3,4-dihydroxyphenyl)-5,7-dihydroxy-4H-chromen-4-one], for which the midpoint of inhibition, the IC50, lay at 22 µM.

`O=C1C[C@@H](c2ccccc2)Oc2ccccc21` [Flavanone] had an IC50 of 437 µM.

`O=c1cc(-c2ccccc2)oc2ccc(O)cc12` [6-hydroxy-2-phenyl-4H-chromen-4-one] registered an IC50 of 82.2 µM.

`O=c1cc(-c2ccccc2)oc2ccccc12` [flavone] had an IC50 of 293 µM.

The compound `O=c1cc(-c2ccccc2)oc2cc(O)cc(O)c12` [5,7-dihydroxy-2-phenyl-4H-chromen-4-one] yielded an IC50 of 123 µM.
